Measurements as given in ChEMBL document CHEMBL3797052 (Eur J Med Chem, 2016).

Test system: not listed separately
Assay: Antiproliferative activity against human OVCAR8 cells assessed as cell growth at 10^-4 M after 48 hrs by sulforhodamine B assay
Type: functional
Settings: OVCAR-8, 48 h, read-out: Activity

SMILES	growth at 100 µM [%]
CNC(=O)c1cc(Oc2ccc3nc(NC(=O)Nc4cc(C(F)(F)F)cc(C(F)(F)F)c4)sc3c2)ccn1	-96

Test system: NCI-H460
Assay: Antiproliferative activity against human NCI-H460 cells assessed as cell growth at 10^-8 M after 48 hrs by sulforhodamine B assay
Type: functional
Settings: NCI-H460, 48 h, read-out: Activity

SMILES	growth at 0.01 µM [%]
CNC(=O)c1cc(Oc2ccc3nc(NC(=O)Nc4cc(C(F)(F)F)cc(C(F)(F)F)c4)sc3c2)ccn1	102

Test system: K562
Assay: Antiproliferative activity against human K562 cells assessed as cell growth at 10^-8 M after 48 hrs by sulforhodamine B assay
Type: functional
Settings: K562, 48 h, read-out: Activity

SMILES	growth at 0.01 µM [%]
CNC(=O)c1cc(Oc2ccc3nc(NC(=O)Nc4cc(C(F)(F)F)cc(C(F)(F)F)c4)sc3c2)ccn1	104

Test system: not listed separately
Assay: Antiproliferative activity against human HCT116 cells assessed as cell growth at 10^-6 M after 48 hrs by sulforhodamine B assay
Type: functional
Settings: HCT-116, 48 h, read-out: Activity

SMILES	growth at 1 µM [%]
CNC(=O)c1cc(Oc2ccc3nc(NC(=O)Nc4cc(C(F)(F)F)cc(C(F)(F)F)c4)sc3c2)ccn1	57

Test system: NCI-H460
Assay: Antiproliferative activity against human NCI-H460 cells assessed as growth inhibition after 48 hrs by sulforhodamine B assay
Type: functional
Settings: NCI-H460, 48 h

SMILES	GI50 [µM]	LC50 (concentration killing 50% of cells) [µM]	TGI [µM]
CNC(=O)c1cc(Oc2ccc3nc(NC(=O)Nc4cc(C(F)(F)F)cc(C(F)(F)F)c4)sc3c2)ccn1	1.23	6.6	2.85

Test system: T47D
Assay: Antiproliferative activity against human T47D cells assessed as cell growth at 10^-4 M after 48 hrs by sulforhodamine B assay
Type: functional
Settings: read-out: Activity

SMILES	growth at 100 µM [%]
CNC(=O)c1cc(Oc2ccc3nc(NC(=O)Nc4cc(C(F)(F)F)cc(C(F)(F)F)c4)sc3c2)ccn1	-60

Test system: 786-0
Assay: Antiproliferative activity against human 786-0 cells assessed as cell growth at […] after 48 hrs by sulforhodamine B assay
Type: functional
Settings: 786-0, 48 h, read-out: Activity

SMILES	growth at 100 µM [%]
CNC(=O)c1cc(Oc2ccc3nc(NC(=O)Nc4cc(C(F)(F)F)cc(C(F)(F)F)c4)sc3c2)ccn1	-94

Test system: not listed separately
Assay: Antiproliferative activity against human HOP92 cells assessed as cell growth at 10^-4 M after 48 hrs by sulforhodamine B assay
Type: functional
Settings: HOP-92, 48 h, read-out: Activity

SMILES	growth at 100 µM [%]
CNC(=O)c1cc(Oc2ccc3nc(NC(=O)Nc4cc(C(F)(F)F)cc(C(F)(F)F)c4)sc3c2)ccn1	-77

Test system: not listed separately
Assay: Antiproliferative activity against human SNB19 cells assessed as growth inhibition after 48 hrs by sulforhodamine B assay
Type: functional
Settings: SNB-19, 48 h

SMILES	GI50 [µM]	LC50 (50% lethal concentration) [µM]	TGI [µM]
CNC(=O)c1cc(Oc2ccc3nc(NC(=O)Nc4cc(C(F)(F)F)cc(C(F)(F)F)c4)sc3c2)ccn1	1.34	> 100	4.43

Test system: not listed separately
Assay: Antiproliferative activity against human OVCAR3 cells assessed as growth inhibition after 48 hrs by sulforhodamine B assay
Type: functional
Settings: OVCAR-3, 48 h

SMILES	GI50 [µM]	LC50 [µM]	TGI [µM]
CNC(=O)c1cc(Oc2ccc3nc(NC(=O)Nc4cc(C(F)(F)F)cc(C(F)(F)F)c4)sc3c2)ccn1	1.03	5.04	2.27

Test system: not listed separately
Assay: Antiproliferative activity against human PC3 cells assessed as cell growth at 10^-7 M after 48 hrs by sulforhodamine B assay
Type: functional
Settings: PC-3, 48 h, read-out: Activity

SMILES	growth at 0.1 µM [%]
CNC(=O)c1cc(Oc2ccc3nc(NC(=O)Nc4cc(C(F)(F)F)cc(C(F)(F)F)c4)sc3c2)ccn1	99

Test system: not listed separately
Assay: Antiproliferative activity against human UACC257 cells assessed as growth inhibition after 48 hrs by sulforhodamine B assay
Type: functional
Settings: UACC-257, 48 h

SMILES	GI50 [µM]	TGI [µM]
CNC(=O)c1cc(Oc2ccc3nc(NC(=O)Nc4cc(C(F)(F)F)cc(C(F)(F)F)c4)sc3c2)ccn1	1.15	2.62

Same assay, conditions: UACC-257, 48 h, read-out: LC50 (the source's name)

SMILES	CC50 [µM]
CNC(=O)c1cc(Oc2ccc3nc(NC(=O)Nc4cc(C(F)(F)F)cc(C(F)(F)F)c4)sc3c2)ccn1	5.95

Test system: K562
Assay: Antiproliferative activity against human K562 cells assessed as growth inhibition after 48 hrs by sulforhodamine B assay
Type: functional
Settings: K562, 48 h

SMILES	GI50 [µM]	TGI [µM]
CNC(=O)c1cc(Oc2ccc3nc(NC(=O)Nc4cc(C(F)(F)F)cc(C(F)(F)F)c4)sc3c2)ccn1	0.784	4.86

Same assay, conditions: K562, 48 h, read-out: LC50 (the source's name)

SMILES	CC50 [µM]
CNC(=O)c1cc(Oc2ccc3nc(NC(=O)Nc4cc(C(F)(F)F)cc(C(F)(F)F)c4)sc3c2)ccn1	> 100

Test system: NCI-H226
Assay: Antiproliferative activity against human NCI-H226 cells assessed as cell growth at 10^-8 M after 48 hrs by sulforhodamine B assay
Type: functional
Settings: NCI-H226, 48 h, read-out: Activity

SMILES	growth at 0.01 µM [%]
CNC(=O)c1cc(Oc2ccc3nc(NC(=O)Nc4cc(C(F)(F)F)cc(C(F)(F)F)c4)sc3c2)ccn1	84

Test system: SN12C
Assay: Antiproliferative activity against human SN12C cells assessed as cell growth at 10^-4 M after 48 hrs by sulforhodamine B assay
Type: functional
Settings: read-out: Activity

SMILES	growth at 100 µM [%]
CNC(=O)c1cc(Oc2ccc3nc(NC(=O)Nc4cc(C(F)(F)F)cc(C(F)(F)F)c4)sc3c2)ccn1	-60
